Columns and labels:
KRas(G12V) = KRas(G12V) (Homo sapiens (Human), UniProt P01116, G12V); assay: KRas(G12V) GDP HTRF (BODIPY-GDP exchange TR-FRET); assay type: biochemical
KRas = KRas (Homo sapiens (Human), UniProt P01116); assay: KRas GDP HTRF (BODIPY-GDP exchange TR-FRET); assay type: biochemical
Procedure: KRAS Biochemical Assay—BODIPY-GDP Exchange TR-FRET. Biochemical compound potencies were assessed by evaluating inhibition of SOS1-mediated nucleotide exchange in KRAS G12D. The SOS1-promoted exchange of fluorescently-labeled GDP (BODIPY-GDP) was monitored by time-resolved fluorescence resonance energy transfer (TR-FRET). Compounds solubilized in DMSO were dispensed as concentration series into 384-well white assay plates. […] The reaction was initiated with the addition of 5 μL of 3 nM recombinant human SOS1 and 300 nM BODIPY-GDP in assay buffer. After a 60-minute incubation, the fluorescence was measured with excitation at 337 nm and emission at 490 and 520 nm. The TR-FRET ratio was determined as the fluorescence at 520 nm divided by the fluorescence at 490 nm multiplied by 10,000. […] The normalized TR-FRET results were plotted against compound concentration, and the data fit to a 4-parameter Hill equation to determine the IC50 values.

Chain of KRas (P01116-2 other isoform, or with tags, fused parts or gaps): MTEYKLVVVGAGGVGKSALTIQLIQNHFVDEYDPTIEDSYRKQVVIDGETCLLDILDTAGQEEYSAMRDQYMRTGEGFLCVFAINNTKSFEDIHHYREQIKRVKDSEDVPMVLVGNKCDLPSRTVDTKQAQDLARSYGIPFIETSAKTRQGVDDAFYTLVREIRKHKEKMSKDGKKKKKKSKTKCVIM
Chain of KRas(G12V) (P01116-2 other isoform, or with tags, fused parts or gaps G12V): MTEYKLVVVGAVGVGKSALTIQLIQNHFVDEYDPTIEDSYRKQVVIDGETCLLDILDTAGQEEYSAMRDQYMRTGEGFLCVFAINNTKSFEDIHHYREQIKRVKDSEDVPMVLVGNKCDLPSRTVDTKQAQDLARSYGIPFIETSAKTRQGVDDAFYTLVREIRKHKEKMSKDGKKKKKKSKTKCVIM

IC50 (KRas(G12V)) | IC50 (KRas) | SMILES
600 nM | 2900 nM | Cc1cc(N)nc(-c2c(Cl)c3c4c(ncnc4c2F)N([C@H](C)c2cccnc2N)CCO3)c1C(F)(F)F (atropisomer, axis not shown) [Example 53b, 6-((S)-4-((R)-1-(2-aminopyridin-3-yl)ethyl)-8-chloro-10-fluoro-5,6-dihydro-4H-[1,4]oxazepino[5,6,7-de]quinazolin-9-yl)-4-methyl-5-(trifluoromethyl)pyridin-2-amine]
580 nM | 1400 nM | Cc1cc(N)nc(-c2cc3ncnc4c3c(c2Cl)OCCN4C(C)(C)c2cccnc2N)c1C(F)(F)F [Example 27, 6-(4-(2-(2-aminopyridin-3-yl)propan-2-yl)-8-chloro-5,6-dihydro-4H-[1,4]oxazepino[5,6,7-de]quinazolin-9-yl)-4-methyl-5-(trifluoromethyl)pyridin-2-amine]
0.14 nM | 0.35 nM | Cc1cc(N)nc(-c2c(Cl)c3c4c(nc(OC[C@H]5CC[C@@H]6CO[C@@H](C)CN56)nc4c2F)N([C@H](C)c2cccnc2N)CCO3)c1C(F)(F)F (atropisomer, axis not shown; (aR)) [Example 93b, 6-((R)-4-((R)-1-(2-aminopyridin-3-yl)ethyl)-8-chloro-10-fluoro-2-(((3S,6R,8aR)-3-methylhexahydro-1H-pyrrolo[2,1-c][1,4]oxazin-6-yl)methoxy)-5,6-dihydro-4H-[1,4]oxazepino[5,6,7-de]quinazolin-9-yl)-4-methyl-5-(trifluoromethyl)pyridin-2-amine]
0.31 nM | 0.232 nM | Cc1cc(N)nc(-c2c(Cl)c3c4c(nc(OC[C@@H]5CC[C@H]6CN(CC(F)(F)F)CCN56)nc4c2F)N([C@H](C)c2cccnc2N)CCO3)c1C(F)(F)F (atropisomer, axis not shown; (aS)) [Example 129a, 6-((R)-4-((R)-1-(2-aminopyridin-3-yl)ethyl)-8-chloro-10-fluoro-2-(((6S,8aS)-2-(2,2,2-trifluoroethyl)octahydropyrrolo[1,2-a]pyrazin-6-yl)methoxy)-5,6-dihydro-4H-[1,4]oxazepino[5,6,7-de]quinazolin-9-yl)-4-methyl-5-(trifluoromethyl)pyridin-2-amine]
0.37 nM | 1.2 nM | Cc1cc(N)nc(-c2c(Cl)c3c4c(ncnc4c2F)N([C@H](C)c2cccnc2N)CCO3)c1C(F)(F)F (atropisomer, axis not shown) [Example 53a, 6-((R)-4-((R)-1-(2-aminopyridin-3-yl)ethyl)-8-chloro-10-fluoro-5,6-dihydro-4H-[1,4]oxazepino[5,6,7-de]quinazolin-9-yl)-4-methyl-5-(trifluoromethyl)pyridin-2-amine]
0.09 nM | 0.83 nM | Cc1cc(N)nc(-c2c(Cl)c3c4c(nc(OC[C@H](C)N5CCOCC5)nc4c2F)N([C@H](C)c2cccnc2N)CCO3)c1C(F)(F)F (atropisomer, axis not shown) [Example 95a, 6-((R)-4-((R)-1-(2-aminopyridin-3-yl)ethyl)-8-chloro-10-fluoro-2-((S)-2-morpholinopropoxy)-5,6-dihydro-4H-[1,4]oxazepino[5,6,7-de]quinazolin-9-yl)-4-methyl-5-(trifluoromethyl)pyridin-2-amine]

Continued, molecule first:

SMILES | IC50 (KRas(G12V)) | IC50 (KRas)
Cc1cc(N)nc(-c2cc3ncnc4c3c(c2Cl)OCCN4CCC2COC2)c1C(F)(F)F [Example 14, 6-(8-chloro-4-(2-(oxetan-3-yl)ethyl)-5,6-dihydro-4H-[1,4]oxazepino[5,6,7-de]quinazolin-9-yl)-4-methyl-5-(trifluoromethyl)pyridin-2-amine] | 21000 nM | 200000 nM
Cc1cc(N)nc(-c2c(Cl)c3c4c(nc(OC[C@@H]5CC(F)(F)CN5C)nc4c2F)N([C@H](C)c2ccnnc2N)CCO3)c1C(F)(F)F (atropisomer, axis not shown) [Example 85, 4-((R)-1-((R)-9-(6-amino-4-methyl-3-(trifluoromethyl)pyridin-2-yl)-8-chloro-2-(((S)-4,4-difluoro-1-methylpyrrolidin-2-yl)methoxy)-10-fluoro-5,6-dihydro-4H-[1,4]oxazepino[5,6,7-de]quinazolin-4-yl)ethyl)pyridazin-3-amine] | 0.09 nM | 0.165 nM
Cc1cc(N)nc(-c2c(Cl)c3c4c(nc(OC[C@@H]5C[C@@]6(CN5C)CC6(F)F)nc4c2F)N([C@H](C)c2nccnc2N)CCO3)c1C(F)(F)F (atropisomer, axis not shown) [Example 171a, 3-((R)-1-((R)-9-(6-amino-4-methyl-3-(trifluoromethyl)pyridin-2-yl)-8-chloro-2-(((3S,6S)-1,1-difluoro-5-methyl-5-azaspiro[2.4]heptan-6-yl)methoxy)-10-fluoro-5,6-dihydro-4H-[1,4]oxazepino[5,6,7-de]quinazolin-4-yl)ethyl)pyrazin-2-amine] | 0.7 nM | 2.2 nM
Cc1cc(N)nc(-c2cc3ncnc4c3c(c2Cl)OC[C@H](CC#N)N4C)c1C(F)(F)F [Example 43, (S)-2-(9-(6-amino-4-methyl-3-(trifluoromethyl)pyridin-2-yl)-8-chloro-4-methyl-5,6-dihydro-4H-[1,4]oxazepino[5,6,7-de]quinazolin-5-yl)acetonitrile] | 2000 nM | 4900 nM
Cc1cc(N)nc(-c2c(Cl)c3c4c(nc(OC[C@@H]5CC[C@H]6COCCN65)nc4c2F)N([C@H](C)c2nccnc2N)CCO3)c1C(F)(F)F (atropisomer, axis not shown; (aS)) [Example 104b, 3-((R)-1-((S)-9-(6-amino-4-methyl-3-(trifluoromethyl)pyridin-2-yl)-8-chloro-10-fluoro-2-(((6S,8aS)-hexahydro-1H-pyrrolo[2,1-c][1,4]oxazin-6-yl)methoxy)-5,6-dihydro-4H-[1,4]oxazepino[5,6,7-de]quinazolin-4-yl)ethyl)pyrazin-2-amine] | 16 nM | 35.2 nM
Cc1cc(N)nc(-c2cc3nc(OC[C@]45CCCN4CC(F)(F)C5)nc4c3c(c2Cl)OCCN4C)c1C(F)(F)F [Example 7, (R)-6-(8-chloro-2-((2,2-difluorotetrahydro-1H-pyrrolizin-7a(5H)-yl)methoxy)-4-methyl-5,6-dihydro-4H-[1,4]oxazepino[5,6,7-de]quinazolin-9-yl)-4-methyl-5-(trifluoromethyl)pyridin-2-amine] | 420 nM | 2300 nM
Cc1cc(N)nc(-c2cc3nc(OCC4(N(C)C)COC4)nc4c3c(c2Cl)OCCN4Cc2cccnc2N)c1C(F)(F)F [Example 54, 6-(4-((2-aminopyridin-3-yl)methyl)-8-chloro-2-((3-(dimethylamino)oxetan-3-yl)methoxy)-5,6-dihydro-4H-[1,4]oxazepino[5,6,7-de]quinazolin-9-yl)-4-methyl-5-(trifluoromethyl)pyridin-2-amine] | 41 nM | 310 nM
Cc1cc(N)nc(-c2c(Cl)c3c4c(nc(OC[C@]56CCCN5CC(F)(F)C6)nc4c2F)N([C@H](C)c2nccnc2N)CCO3)c1C(F)(F)F (atropisomer, axis not shown) [Example 166a, 3-((R)-1-((R)-9-(6-amino-4-methyl-3-(trifluoromethyl)pyridin-2-yl)-8-chloro-2-(((R)-2,2-difluorotetrahydro-1H-pyrrolizin-7a(5H)-yl)methoxy)-10-fluoro-5,6-dihydro-4H-[1,4]oxazepino[5,6,7-de]quinazolin-4-yl)ethyl)pyrazin-2-amine] | 0.56 nM | 2.06 nM
Cc1cc(N)nc(-c2c(Cl)c3c4c(nc(OC[C@@H]5CCCN5CC(F)F)nc4c2F)N([C@H](C)c2nccnc2N)CCO3)c1C(F)(F)F (atropisomer, axis not shown) [Example 158a, 3-((R)-1-((R)-9-(6-amino-4-methyl-3-(trifluoromethyl)pyridin-2-yl)-8-chloro-2-(((S)-1-(2,2-difluoroethyl)pyrrolidin-2-yl)methoxy)-10-fluoro-5,6-dihydro-4H-[1,4]oxazepino[5,6,7-de]quinazolin-4-yl)ethyl)pyrazin-2-amine] | 0.76 nM | 5.41 nM
Cc1cc(N)nc(-c2cc3ncnc4c3c(c2Cl)OCCN4C2(c3cccnc3N)CC2)c1C(F)(F)F [Example 11, 6-(4-(1-(2-aminopyridin-3-yl)cyclopropyl)-8-chloro-5,6-dihydro-4H-[1,4]oxazepino[5,6,7-de]quinazolin-9-yl)-4-methyl-5-(trifluoromethyl)pyridin-2-amine] | 1000 nM | 14000 nM
Cc1cc(N)nc(-c2c(Cl)c3c4c(nc(OC[C@@H]5CC(F)(F)CN5C)nc4c2F)N([C@H](C)c2cncc(N)c2)CCO3)c1C(F)(F)F (single isomer, unassigned) [Example 70a] | 0.49 nM | 8.3 nM
Cc1cc(N)nc(-c2cc3ncnc4c3c(c2Cl)OCCN4Cc2cccc(=O)[nH]2)c1C(F)(F)F [Example 12, 6-((9-(6-amino-4-methyl-3-(trifluoromethyl)pyridin-2-yl)-8-chloro-5,6-dihydro-4H-[1,4]oxazepino[5,6,7-de]quinazolin-4-yl)methyl)pyridin-2(1H)-one] | 8900 nM | 21000 nM
Cc1cc(N)nc(-c2c(Cl)c3c4c(nc(OC[C@@]56CCN5CC(F)(F)C6)nc4c2F)N([C@H](C)c2nccnc2N)CCO3)c1C(F)(F)F (single isomer, unassigned) [Example 162d] | 410 nM | 896 nM

— patent publication US20240383915A1, “OXAZEPINE COMPOUNDS AND USES THEREOF IN THE TREATMENT OF CANCER” (Genentech, Inc., priority 2021, published 2024)
